According to US20120252721A1 (priority 2011, published 2012):

Columns and labels:
[1] = test system: HCV Con1 subgenomic replicon (GS4.1 cells); test: HCV replicon assay (NS5A ELISA, 72 hrs); format: cell-based; details: Hepatitis C virus
Experimental: Huh-7 cells containing HCV Con1 subgenomic replicon (GS4.1 cells) were grown in Dulbecco's Modified Eagle Medium (DMEM) supplemented with 10% fetal bovine serum (FBS), 2 mM L-glutamine, 110 mg/L sodium pyruvate, 1× non-essential amino acids, 100 U/mL penicillin-streptomycin, and 0.5 mg/mL G418 (Invitrogen). For dose-response testing, the cells were seeded in 96-well plates at 7.5×10^3 cells/well in a volume of 50 μL, and incubated at 37° C./5% CO2. Three hours after plating, 50 μL often 2-fold serial dilutions of compounds (highest concentration, 75 μM) were added, and cell cultures were incubated at 37° C./5% CO2 in the presence of 0.5% DMSO. Alternatively, compounds were tested at a single concentration of 15 μM. In all cases, Huh-7 cells lacking the HCV replicon served as negative control. The cells were incubated in the presence of compounds for 72 hrs after which they were monitored for expression of the NS5A protein by enzyme-linked immunosorbent assay (ELISA). For this, the plates were then fixed for 1 min with acetone/methanol (1:1, v/v), washed twice with phosphate-buffered saline (PBS), 0.1% Tween 20, blocked for 1 hr at room temperature with TNE buffer containing 10% FBS and then incubated for 2 hr at 37° C. with the anti-NS5A mouse monoclonal antibody A-236 (ViroGen) diluted in the same buffer. After washing three times with PBS, 0.1% Tween 20, the cells were incubated 1 hr at 37° C. with anti-mouse immunoglobulin G-peroxidase conjugate in TNE, 10% FBS. After washing as described above, the reaction was developed with O-phenylenediamine (Zymed). The reaction was stopped after 30 min with 2 NH2SO4, and absorbance was read at 492 nm using Sunrise Tecan spectrophotometer. EC50 values were determined from the % inhibition versus concentration data using a sigmoidal non-linear regression analysis based on four parameters with Tecan Magellan software.

in vitro = format: cell-based; details: human; GS4.1 cells, cellular viability
Experimental: For cytotoxicity evaluation, GS4.1 cells were treated with compounds as described above and cellular viability was monitored using the Cell Titer 96 AQeous One Solution Cell Proliferation Assay (Promega). CC50 values were determined from the % cytotoxicity versus concentration data with Tecan Magellan software as described above.

## COC(=O)N[C@H](C(=O)N1CCC[C@H]1c1ncc(-c2ccc(-c3cn4cc(NC(=O)[C@@H]5CCCN5C(=O)[C@H](NC(=O)OC(C)(C)C)c5ccccc5)nc4s3)cc2)[nH]1)C(C)C [Compound A1, (S,S,S,R)-[1-(2-{5-[4-(6-{[1-(2-tert-butoxycarbonylamino-2-phenyl-acetyl)-pyrrolidine-2-carbonyl]-amino}imidazo[2,1-b]thiazol-2-yl)-phenyl]-1H-imidazol-2-yl}pyrrolidine-1-carbonyl)-2-methyl-propyl]-carbamic acid methyl ester]
[1]
  EC50: < 0.001 µM
In vitro
  CC50: > 75 µM

## COC(=O)N[C@H](C(=O)N1CCC[C@H]1C(=O)Nc1cn2cc(-c3ccc(-c4cnc([C@@H]5CCCN5C(=O)[C@@H](NC(=O)OC)C(C)C)[nH]4)cc3)sc2n1)C(C)C [Compound A2, (S,S,S,S)-(1-{2-[2-(4-{2-[1-(2-methoxycarbonylamino-3-methyl-butyryl)-pyrrolidin-2-yl]-3H-imidazol-4-yl}-phenyl)-imidazo[2,1-b]thiazol-6-ylcarbamoyl]-pyrrolidine-1-carbonyl}-2-methyl-propyl)-carbamic acid methyl ester]
[1]
  EC50: 0.001 to 0.01 µM
In vitro
  CC50: 10 to 75 µM

## COC(=O)N[C@H](C(=O)N1CCCC1c1ncc(-c2cn3cc(-c4ccc(-c5cnc([C@@H]6CCCN6C(=O)[C@@H](NC(=O)OC)C(C)C)[nH]5)cc4)nc3s2)[nH]1)C(C)C (stereo partly shown) [Compound A7]
[1]
  EC50: < 0.001 µM
In vitro
  CC50: > 75 µM

## CC(C)(C)OC(=O)N[C@@H](C(=O)N1CCOC[C@H]1C(=O)Nc1cn2cc(-c3ccccc3)sc2n1)c1ccccc1 [Compound A22]
[1]
  EC50: > 0.1 µM
In vitro
  CC50: > 75 µM

## CC(C)(C)OC(=O)N[C@@H](C(=O)N1CCC[C@H]1C(=O)Nc1cn2cc(C#Cc3ccccc3)sc2n1)c1ccccc1 [Compound A23]
[1]
  EC50: > 0.1 µM
In vitro
  CC50: 10 to 75 µM

## CC(C)(C)OC(=O)N[C@@H](C(=O)N1CCC[C@H]1C(=O)Nc1cn2cc(-c3ccccc3)sc2n1)c1ccccc1 [Compound A27]
[1]
  EC50: 0.01 to 0.1 µM
In vitro
  CC50: > 75 µM

## CC(C)(C)OC(=O)Nc1ccc(-c2cn3cc(NC(=O)[C@@H]4CCCN4C(=O)[C@H](NC(=O)OC(C)(C)C)c4ccccc4)nc3s2)cc1 [Compound A29]
[1]
  EC50: > 0.1 µM
In vitro
  CC50: 10 to 75 µM

## COC(=O)N[C@H](C(=O)N1CCC[C@H]1c1ncc(-c2ccc(-c3cn4cc(NC(=O)[C@@H]5CCCN5C(=O)[C@H](NC(=O)OC)c5ccccc5)nc4s3)cc2)[nH]1)C(C)C [Compound A30, (S,S,S,R)-[1-(2-{5-[4-(6-{[1-(2-methoxycarbonylamino-2-phenyl-acetyl)-pyrrolidin-2-carbonyl]-amino}-imidazo[2,1-b]thiazol-2-yl)-phenyl]-1H-imidazol-2-yl}-pyrrolidine-1-carbonyl)-2-methyl-propyl]-carbamic acid methyl ester]
[1]
  EC50: < 0.001 µM
In vitro
  CC50: > 75 µM

## COC(=O)N[C@H](C(=O)N1CCC[C@H]1c1ncc(-c2ccc(-c3cn4cc(NC(=O)C5CCCN5C(=O)CNC(=O)OC(C)(C)C)nc4s3)cc2)[nH]1)C(C)C (stereo partly shown) [Compound A31]
[1]
  EC50: 0.01 to 0.1 µM
In vitro
  CC50: > 75 µM

## COC(=O)N[C@H](C(=O)N1CCC[C@H]1C(=O)Nc1ccc(-c2cn3cc(NC(=O)C4CCCN4C(=O)[C@@H](NC(=O)OC)C(C)C)nc3s2)cc1)c1ccccc1 (stereo partly shown) [Compound A32]
[1]
  EC50: < 0.001 µM
In vitro
  CC50: > 75 µM

## COC(=O)N[C@H](C(=O)N1CCC[C@H]1c1ncc(-c2ccc(-c3cn4cc(-c5cnc(C6CCCN6C(=O)[C@@H](NC(=O)OC(C)(C)C)c6ccccc6)[nH]5)nc4s3)cc2)[nH]1)C(C)C (stereo partly shown) [Compound A33]
[1]
  EC50: < 0.001 µM
In vitro
  CC50: > 75 µM

## COC(=O)N[C@H](C(=O)N1CCC[C@H]1C(=O)Nc1ccc(-c2cn3cc(NC(=O)OC(C)(C)C)nc3s2)cc1)C(C)C [Compound A34]
[1]
  EC50: 0.001 to 0.01 µM
In vitro
  CC50: 10 to 75 µM

## COC(=O)N[C@H](C(=O)N1CCCC1c1ncc(-c2ccc(-c3csc4c(-c5cnc(C6CCCN6C(=O)OCc6ccccc6)[nH]5)csc34)cc2)[nH]1)C(C)C (stereo partly shown) [Compound A49]
[1]
  EC50: < 0.001 µM
In vitro
  CC50: > 75 µM

## CCOC(=O)N[C@@H](C(=O)N1CCC[C@H]1C(=O)Nc1cn2cc(-c3ccc(-c4cnc([C@@H]5CCCN5C(=O)[C@@H](NC(=O)OC)C(C)C)[nH]4)cc3)sc2n1)c1ccccc1 [Compound A55, (S,S,S,R)-[1-(2-{5-[4-(6-{[1-(2-ethoxycarbonylamino-2-phenylacetyl)-pyrrolidine-2-carbonyl]-amino}imidazo[2,1-b]thiazol-2-yl)-phenyl]-1H-imidazol-2-yl}pyrrolidine-1-carbonyl)-2-methyl-propyl]-carbamic acid methyl ester]
[1]
  EC50: < 0.001 µM
In vitro
  CC50: 10 to 75 µM

## COC(=O)N[C@H](C(=O)N1CCC[C@H]1c1ncc(-c2ccc(-c3cn4cc(NC(=O)[C@@H]5CCCN5C(=O)[C@H](NC(=O)OC(C)C)c5ccccc5)nc4s3)cc2)[nH]1)C(C)C [Compound A56]
[1]
  EC50: < 0.001 µM
In vitro
  CC50: > 75 µM

## COC(=O)NC(C(=O)N1CCCC1c1ncc(-c2cn3cc(-c4ccc(-c5cnc([C@@H]6CCCN6C(=O)[C@H](NC(=O)OC)c6ccccc6)[nH]5)cc4)nc3s2)[nH]1)c1ccccc1 (stereo partly shown) [Compound A60]
[1]
  EC50: < 0.001 µM
In vitro
  CC50: > 75 µM

## COC(=O)N[C@H](C(=O)N1CCCC1c1ncc(-c2ccc(-c3csc4c(-c5cnc(C6CCCN6C(=O)[C@@H](NC(=O)OC(C)(C)C)C(C)C)[nH]5)csc34)cc2)[nH]1)C(C)C (stereo partly shown) [Compound A76]
[1]
  EC50: < 0.001 µM
In vitro
  CC50: > 75 µM

## COC(=O)N[C@H](C(=O)N1CCCC1c1ncc(-c2ccc(-c3csc4c(-c5cnc(C6CCCN6C(=O)[C@H](NC(=O)OC)C(C)C)[nH]5)csc34)cc2)[nH]1)C(C)C (stereo partly shown) [Compound A77]
[1]
  EC50: < 0.001 µM
In vitro
  CC50: > 75 µM

## COC(=O)N[C@H](C(=O)N1CCCC1c1ncc(-c2csc3c(-c4ccc(-c5cnc(C6CCCN6C(=O)[C@@H](NC(=O)OC)C(C)C)[nH]5)cc4)csc23)[nH]1)c1ccccc1 (stereo partly shown) [Compound A78]
[1]
  EC50: < 0.001 µM
In vitro
  CC50: > 75 µM

## COC(=O)N[C@@H](C(=O)N1CCC[C@H]1C(=O)Nc1ccc(-c2cn3cc(NC(=O)[C@@H]4CCCN4C(=O)[C@H](NC(=O)OC)c4ccccc4)nc3s2)cc1)c1ccccc1 [Compound A79]
[1]
  EC50: < 0.001 µM
In vitro
  CC50: > 75 µM

## COC(=O)N[C@@H](C(=O)N1CCC[C@H]1C(=O)Nc1ccc(C#Cc2cn3cc(NC(=O)[C@@H]4CCCN4C(=O)[C@H](NC(=O)OC)c4ccccc4)nc3s2)cc1)c1ccccc1 [Compound A80]
[1]
  EC50: < 0.001 µM
In vitro
  CC50: > 75 µM

## COC(=O)N[C@H](C(=O)N1CCC[C@H]1c1ncc(-c2csc3c(-c4cnc([C@@H]5CCCN5C(=O)[C@@H](NC(=O)OC)C(C)C)[nH]4)csc23)[nH]1)C(C)C [Compound A82, ((S)-1-{(S)-2-[5-(6-{2-[(S)-1-((S)-2-methoxycarbonylamino-3-methyl-butyryl)-pyrrolidin-2-yl]-3H-imidazol-4-yl}-thieno[3,2-b]thiophen-3-yl)-1H-imidazol-2-yl]-pyrrolidine-1-carbonyl}-2-methyl-propyl)-carbamic acid methyl ester]
[1]
  EC50: < 0.001 µM
In vitro
  CC50: 10 to 75 µM

## COC(=O)N[C@H](C(=O)N1CCC[C@H]1c1ncc(C#Cc2csc3c(-c4ccc(-c5cnc([C@@H]6CCCN6C(=O)[C@@H](NC(=O)OC)C(C)C)[nH]5)cc4)csc23)[nH]1)C(C)C [Compound A84, [(S)-1-((S)-2-{4-[4-(6-{2-[(S)-1-((S)-2-methoxycarbonylamino-3-methyl-butyryl)-pyrrolidin-2-yl]-3H-imidazol-4-ylethynyl}-thieno[3,2-b]thiophen-3-yl)-phenyl]-1H-imidazol-2-yl}-pyrrolidine-1-carbonyl)-2-methyl-propyl]-carbamic acid methyl ester]
[1]
  EC50: < 0.001 µM
In vitro
  CC50: > 75 µM

## COC(=O)N[C@H](C(=O)N1CCCC1c1cc(-c2ccc(-c3csc4c(-c5ccc(-c6cnc(C7CCCN7C(=O)[C@@H](NC(=O)OC)C(C)C)[nH]6)cc5)csc34)cc2)[nH]n1)C(C)C (stereo partly shown) [Compound A87]
[1]
  EC50: < 0.001 µM
In vitro
  CC50: > 75 µM

## COC(=O)N[C@H](C(=O)N1CCCC1c1nc(-c2ccc(-c3cn4cc(-c5ccc(-c6cnc([C@@H]7CCCN7C(=O)[C@@H](NC(=O)OC)C(C)C)[nH]6)cc5)sc4n3)cc2)c[nH]1)C(C)C (stereo partly shown) [Compound A93]
[1]
  EC50: < 0.001 µM
In vitro
  CC50: > 75 µM

## COC(=O)N[C@H](C(=O)N1CCCC1c1ncc(-c2ccc(-c3csc4c(-c5ccccc5)csc34)cc2)[nH]1)C(C)C (stereo partly shown) [Compound A103]
[1]
  EC50: 0.001 to 0.01 µM
In vitro
  CC50: 10 to 75 µM

## COC(=O)N[C@H](C(=O)N1CCCC1c1nc(-c2ccc(-c3sc4cc(-c5ccc(-c6cnc([C@@H]7CCCN7C(=O)[C@@H](NC(=O)OC)C(C)C)[nH]6)cc5)sc4c3-c3ccc(-c4cnc(C5CCCN5C(=O)[C@@H](NC(=O)OC)C(C)C)[nH]4)cc3)cc2)c[nH]1)C(C)C (stereo partly shown) [Compound A105]
[1]
  EC50: 0.01 to 0.1 µM
In vitro
  CC50: 10 to 75 µM

## CC(C)(C)OC(=O)N1CCCC1c1ncc(-c2ccc(-c3cn4ccsc4n3)cc2)[nH]1 (stereo not shown) [Compound A167]
[1]
  EC50: > 0.1 µM
